# Measurements published in PMC7587356, “High-Throughput Screening for Inhibitors of the SARS-CoV-2 Protease Using a FRET-Biosensor” (Molecules, 2020).
# Counter-ions that a name gives are not always drawn. Like-named read-outs stand apart in the source and are kept apart here.
# Biological target: SARS-CoV-2 3CLpro (Severe acute respiratory syndrome coronavirus 2, UniProt P0DTD1)
# Assay: biochemical
# Type: biochemical
# Parameters: Replicate_1 / Replicate_2 / mean / mean (LOPAC_screen_w_protease): unit not given here
# Details: for inhibition at 5 µM: 4 h
# [1] = LOPAC1280 primary screen with protease, 5 µM compound, replicate 1
# [2] = LOPAC1280 primary screen with protease, 5 µM compound, replicate 2
# [3] = LOPAC1280 primary screen with protease, 5 µM compound, mean of the two replicates
# [4] = sheet LOPAC_screen_w_protease, primary screen with protease, 5 µM, mean of two replicates
# [5] = sheet LOPAC_screen_w_protease, primary screen with protease, 5 µM, replicate 1
# [6] = sheet LOPAC_screen_w_protease, primary screen with protease, 5 µM, replicate 2
# [7] = sheet LOPAC_screen_w_protease, LOPAC1280 at 5 µM, mean of two replicates
# [8] = sheet LOPAC_screen_w_protease, LOPAC1280 at 5 µM, replicate 1
# [9] = sheet LOPAC_screen_w_protease, LOPAC1280 at 5 µM, replicate 2
# [10] = sheet LOPAC_screen_w_protease, primary screen with protease, compound at 5 µM, mean of two replicates
# [11] = sheet LOPAC_screen_w_protease, primary screen with protease, compound at 5 µM, replicate 1
# [12] = sheet LOPAC_screen_w_protease, primary screen with protease, compound at 5 µM, replicate 2
molecule,measurement,setting,value
Cc1[nH]c2ccc(O)cc2c1CCN.O=C(O)/C=C\C(=O)O [2-Methyl-5-hydroxytryptamine maleate],mean,"sheet LOPAC_screen_w_protease, LOPAC1280 primary screen with protease, 5 µM compound, mean of the two replicates",5.124
same,Replicate_1,"sheet LOPAC_screen_w_protease, LOPAC1280 primary screen with protease, 5 µM compound, replicate 1",4.629
same,Replicate_2,"sheet LOPAC_screen_w_protease, LOPAC1280 primary screen with protease, 5 µM compound, replicate 2",5.62
COc1cc2c(CCNC(C)=O)c[nH]c2cc1Cl [6-Chloromelatonin],mean (LOPAC_screen_w_protease),"LOPAC1280 primary screen with protease, 5 µM compound, mean of two replicates",1.65
same,Replicate_1 (LOPAC_screen_w_protease),[1],0.5069
same,Replicate_2 (LOPAC_screen_w_protease),[2],2.794
Nc1ccc(CCN2CCN(c3cccc(C(F)(F)F)c3)CC2)cc1 [PAPP],mean,"sheet LOPAC_screen_w_protease, LOPAC1280 primary screen at 5 µM, with protease, mean of two replicates",-1.528
same,Replicate_1,"sheet LOPAC_screen_w_protease, LOPAC1280 primary screen at 5 µM, with protease, replicate 1",-1.095
same,Replicate_2,"sheet LOPAC_screen_w_protease, LOPAC1280 primary screen at 5 µM, with protease, replicate 2",-1.96
CN(C)C(=O)C(CCN1CCC(O)(c2ccc(Cl)cc2)CC1)(c1ccccc1)c1ccccc1 [Loperamide hydrochloride],inhibition at 5 µM,"sheet LOPAC_screen_w_protease, primary screen with protease, mean of two replicates, read-out: mean",2.22%
same,inhibition at 5 µM,"sheet LOPAC_screen_w_protease, primary screen with protease, replicate 1, read-out: Replicate_1",4.2%
same,inhibition at 5 µM,"sheet LOPAC_screen_w_protease, primary screen with protease, replicate 2, read-out: Replicate_2",0.237%
CC(C)NCC(O)COc1cccc2[nH]ccc12 (stereo not drawn) [S(-)-Pindolol],mean (LOPAC_screen_w_protease),[3],1.809
same,Replicate_1 (LOPAC_screen_w_protease),[1],1.519
same,Replicate_2 (LOPAC_screen_w_protease),[2],2.1
same,mean,[4],0.4162
same,Replicate_1,[5],1.799
same,Replicate_2,[6],-0.9667
O=c1cc(-c2ccc(O)cc2)oc2cc(O)cc(O)c12 [Apigenin],inhibition at 5 µM,read-out: Replicate_1,0.663%
same,inhibition at 5 µM,read-out: Replicate_2,-0.402%
same,inhibition at 5 µM,read-out: mean,0.131%
CNC(=O)[C@H]1O[C@@H](n2cnc3c(N)ncnc32)[C@H](O)[C@@H]1O [5'-N-Methyl carboxamidoadenosine],mean,"sheet LOPAC_screen_w_protease, primary screen of LOPAC1280 at 5 µM with protease, mean of the two replicates",3.814
same,Replicate_1,"sheet LOPAC_screen_w_protease, primary screen of LOPAC1280 at 5 µM with protease, replicate 1",3.632
same,Replicate_2,"sheet LOPAC_screen_w_protease, primary screen of LOPAC1280 at 5 µM with protease, replicate 2",3.996
Cc1ccccc1/C=C/C1=NCCN1 [Metrazoline oxalate],inhibition at 5 µM,"LOPAC1280 primary screen with protease, 5 µM compound, replicate 1, read-out: Replicate_1 (LOPAC_screen_w_protease)",2.83%
same,inhibition at 5 µM,"LOPAC1280 primary screen with protease, 5 µM compound, replicate 2, read-out: Replicate_2 (LOPAC_screen_w_protease)",0.879%
same,mean (LOPAC_screen_w_protease),[3],1.853
CCN(CC)CCNC(=O)c1cc(S(C)(=O)=O)ccc1OC [Tiapride hydrochloride],inhibition at 5 µM,"sheet LOPAC_screen_w_protease, LOPAC1280 at 5 µM, mean of two replicates, read-out: mean",1.21%
same,inhibition at 5 µM,"sheet LOPAC_screen_w_protease, LOPAC1280 at 5 µM, replicate 1, read-out: Replicate_1",1.45%
same,inhibition at 5 µM,"sheet LOPAC_screen_w_protease, LOPAC1280 at 5 µM, replicate 2, read-out: Replicate_2",0.964%
S(-)-DS 121 hydrochloride,mean,"sheet LOPAC_screen_w_protease, primary screen with protease, mean of two replicates",2.32
same,Replicate_1,"sheet LOPAC_screen_w_protease, primary screen with protease, replicate 1",2.977
CP(=O)(O)C1=CCNCC1 [TPMPA],mean,[4],0.264
same,Replicate_1,[5],-0.09904
same,Replicate_2,[6],0.6269
(+)-Cyclazocine,mean,[7],1.031
same,Replicate_1,[8],2.203
same,Replicate_2,[9],-0.1419
COc1ccccc1N1CCNCC1.Cl,mean,[7],0.9162
same,Replicate_1,[8],1.248
same,Replicate_2,[9],0.5839
OC[C@H]1O[C@@H](n2cnc3c(N[C@H]4CC5CCC4C5)ncnc32)[C@H](O)[C@@H]1O (stereo partly drawn) [(S)-ENBA],mean,[10],2.65
same,Replicate_1,[11],4.26
same,Replicate_2,[12],1.041
CN/C(=N/CCSCc1nc[nH]c1C)NC#N [Cimetidine],inhibition at 5 µM,read-out: Replicate_1,1.76%
same,inhibition at 5 µM,read-out: Replicate_2,2.91%
same,inhibition at 5 µM,read-out: mean,2.34%
CN1CCC(=C2c3ccccc3CC(=O)c3sccc32)CC1 [Ketotifen fumarate],inhibition at 5 µM,"sheet LOPAC_screen_w_protease, primary screen of LOPAC1280 at 5 µM with protease, mean of the two replicates, read-out: mean",3.16%
same,inhibition at 5 µM,"sheet LOPAC_screen_w_protease, primary screen of LOPAC1280 at 5 µM with protease, replicate 1, read-out: Replicate_1",4.97%
same,inhibition at 5 µM,"sheet LOPAC_screen_w_protease, primary screen of LOPAC1280 at 5 µM with protease, replicate 2, read-out: Replicate_2",1.34%
O=C(O)c1cccnc1Nc1cccc(C(F)(F)F)c1 [Niflumic acid],inhibition at 5 µM,"sheet LOPAC_screen_w_protease, LOPAC1280 primary screen with protease, 5 µM compound, mean of the two replicates, read-out: mean",4.95%
same,inhibition at 5 µM,"sheet LOPAC_screen_w_protease, LOPAC1280 primary screen with protease, 5 µM compound, replicate 1, read-out: Replicate_1",4.76%
same,inhibition at 5 µM,"sheet LOPAC_screen_w_protease, LOPAC1280 primary screen with protease, 5 µM compound, replicate 2, read-out: Replicate_2",5.13%
O=c1onc2cnc3ccccc3n12 [ODQ],mean,[10],2.809
same,Replicate_1,[11],2.693
same,Replicate_2,[12],2.926
